Measurements as given in ChEMBL document CHEMBL1128950, “Synthesis and structure-activity relationships of 9-substituted acridines as endothelin-A receptor antagonists” (Bioorg Med Chem Lett, 1996).

Experiments:
Format in all cases: cell-based
[1] = biological target: T1, Endothelin receptor type B (Homo sapiens, UniProt P24530); assay: Inhibition of binding of [125I]ET1 to cloned human Endothelin B receptor expressed in CHO-K1 cells up to 200 uM; non significant
T1 sequence (P24530 whole entry): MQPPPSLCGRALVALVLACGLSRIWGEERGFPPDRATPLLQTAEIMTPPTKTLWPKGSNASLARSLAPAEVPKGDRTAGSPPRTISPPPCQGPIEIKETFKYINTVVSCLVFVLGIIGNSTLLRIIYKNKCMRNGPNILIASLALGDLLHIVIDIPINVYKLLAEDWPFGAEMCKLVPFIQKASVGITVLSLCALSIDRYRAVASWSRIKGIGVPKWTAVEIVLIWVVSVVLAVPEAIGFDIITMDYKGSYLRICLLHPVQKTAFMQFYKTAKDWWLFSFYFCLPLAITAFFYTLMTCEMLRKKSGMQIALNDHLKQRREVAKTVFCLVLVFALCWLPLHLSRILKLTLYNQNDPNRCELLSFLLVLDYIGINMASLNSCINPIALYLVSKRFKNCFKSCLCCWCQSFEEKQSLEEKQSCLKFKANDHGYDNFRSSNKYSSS

Endothelin-1 receptor = biological target: T2, Endothelin-1 receptor (Homo sapiens, UniProt P25101); assay: Inhibition of binding of [125I]ET1 to cloned human Endothelin A receptor expressed in LtK- cells
T2 sequence (P25101 whole entry): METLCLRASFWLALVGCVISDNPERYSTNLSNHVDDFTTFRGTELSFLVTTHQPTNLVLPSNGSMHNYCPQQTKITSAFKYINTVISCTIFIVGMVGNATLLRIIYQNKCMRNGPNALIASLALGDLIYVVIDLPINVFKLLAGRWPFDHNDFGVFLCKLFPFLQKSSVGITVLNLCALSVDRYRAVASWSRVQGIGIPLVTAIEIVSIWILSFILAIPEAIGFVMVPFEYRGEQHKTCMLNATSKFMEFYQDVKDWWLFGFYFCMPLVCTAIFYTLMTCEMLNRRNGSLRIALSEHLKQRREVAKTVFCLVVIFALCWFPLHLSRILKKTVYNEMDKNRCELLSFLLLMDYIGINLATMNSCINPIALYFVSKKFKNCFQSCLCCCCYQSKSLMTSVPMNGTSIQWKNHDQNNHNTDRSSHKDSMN

[2] = biological target: T1, Endothelin receptor type B; assay: Compound was tested for inhibition of binding of [125I]ET1 to cloned human Endothelin B receptor expressed in CHO-K1 cells

IC50 [1]	IC50 (Endothelin-1 receptor)	IC50 [2]	SMILES
Not Active	–	–	COC(=O)C(Oc1c2ccccc2nc2ccccc12)c1ccc2c(c1)OCO2 (centres undefined)
Not Active	> 25 µM	–	COC(=O)C(c1ccc2c(c1)OCO2)C1c2ccccc2CCc2ccccc21 (centres undefined)
Not Active	–	–	CC(C)(C)OC(=O)C(c1ccc2c(c1)OCO2)c1c2ccccc2nc2ccccc12 (centres undefined)
Not Active	0.9 µM	–	OCC(c1ccc2c(c1)OCO2)c1c2ccccc2nc2ccccc12 (centres undefined)
Not Active	> 25 µM	–	COC(=O)C(c1ccc(OC)cc1)c1c2ccccc2nc2ccccc12 (centres undefined)
Not Active	> 25 µM	–	COC(=O)C(c1ccc([N+](=O)[O-])cc1)c1c2ccccc2nc2ccccc12 (centres undefined)
Not Active	–	–	O=CC(c1ccc2c(c1)OCO2)c1c2ccccc2nc2ccccc12 (centres undefined)
Not Active	33 µM	–	O=C(OCc1ccc2c(c1)OCO2)C(c1ccc2c(c1)OCO2)c1c2ccccc2nc2ccccc12 (centres undefined)
Not Active	> 25 µM	–	COC(=O)C(c1ccc(Cl)cc1)c1c2ccccc2nc2ccccc12 (centres undefined)
Not Active	> 25 µM	–	c1ccc2c(Cc3ccc4c(c3)OCO4)c3ccccc3nc2c1
Not Active	–	–	NC(=O)C(c1ccc2c(c1)OCO2)c1c2ccccc2nc2ccccc12 (centres undefined)
Not Active	> 25 µM	–	COC(=O)C(c1ccc2c(c1)OCO2)c1cc(-c2ccccc2)nc2ccccc12 (centres undefined)
–	–	> 250 µM	COC(=O)C(c1ccc2c(c1)OCO2)c1c2ccccc2nc2ccccc12 (centres undefined)
Not Active	> 25 µM	–	COC(=O)C(c1ccc2c(c1)OCO2)c1c2ccccc2nc2c(OC)c(OC)ccc12 (centres undefined)
Not Active	> 25 µM	–	COC(=O)C(c1ccc2c(c1)OC(C)(C)O2)c1c2ccccc2nc2ccccc12 (centres undefined)

The next lines start with the molecule.

SMILES	IC50 [1]	IC50 (Endothelin-1 receptor)	IC50 [2]
COC(=O)C(c1ccc2c(c1)OCO2)c1c2c(nc3ccccc13)CCCC2 (centres undefined)	Not Active	–	–
O=C(OCc1ccccc1)C(c1ccc2c(c1)OCO2)c1c2ccccc2nc2ccccc12 (centres undefined)	Not Active	57 µM	–
CC(C)(C)c1ccc(COC(=O)C(c2ccc3c(c2)OCO3)c2c3ccccc3nc3ccccc23)cc1 (centres undefined)	Not Active	> 25 µM	–
COC(=O)C(c1ccc(Cl)c(Cl)c1)c1c2ccccc2nc2ccccc12 (centres undefined)	Not Active	> 25 µM	–
COC(=O)C(c1ccc(OC)c(OC)c1)c1c2ccccc2nc2ccccc12 (centres undefined)	Not Active	> 25 µM	–
O=C(OCc1ccc(Cl)cc1)C(c1ccc2c(c1)OCO2)c1c2ccccc2nc2ccccc12 (centres undefined)	Not Active	> 25 µM	–
COC(=O)C(Cc1ccc2c(c1)OCO2)c1c2ccccc2nc2ccccc12 (centres undefined)	Not Active	> 25 µM	–
COC(=O)C(c1ccc2c(c1)OCO2)c1cc(C)nc2ccccc12 (centres undefined)	Not Active	61 µM	–
COC(=O)C(Cc1c2ccccc2cc2ccccc12)c1ccc2c(c1)OCO2 (centres undefined)	Not Active	76 µM	–
Cc1cc(C(C(N)=O)c2ccc3c(c2)OCO3)c2ccccc2n1 (centres undefined)	Not Active	37 µM	–
COC(=O)C(c1ccc2c(c1)OCO2)C(c1ccccc1)c1ccccc1 (centres undefined)	Not Active	> 25 µM	–
COc1ccc(COC(=O)C(c2ccc3c(c2)OCO3)c2c3ccccc3nc3ccccc23)cc1 (centres undefined)	Not Active	–	–
COC(=O)C(c1ccc2c(c1)OCO2)c1c2ccccc2[n+]([O-])c2ccccc12 (centres undefined)	Not Active	> 25 µM	–
